Earlier results in publication PMC8198792, “Prediction of Anticancer Peptides with High Efficacy and Low Toxicity by Hybrid Model Based on 3D Structure of Peptides” (International Journal of Molecular Sciences, 2021).
Like-named read-outs stand apart in the source and are kept apart here.

Legend:
[1] = system: cancer cell lines; set-up: method as in 6 sources, ref CancerPPD [45] and SATPdb ||| ref CancerPPD/SATPdb ||| ref CancerPPD, SATPdb, Swissprot (PDB) ||| ref CancerPPD/SATPdb/Swissprot(PDB) ||| ref CancerPPD / SATPdb ||| ...; settings: cited from earlier work
Excerpt: Supplement ijms-22-05630-s001.zip/ACPs(seguence).xlsx, sheet "D1" | column: Activity || Supplement ijms-22-05630-s001.zip/ACPs(seguence).xlsx, sheet "D2" | column: Activity || Supplement ijms-22-05630-s001.zip/ACPs(seguence).xlsx, sheet "D3" | column: Activity || (+ 2 further places)

[2] = system: erythrocytes; settings: cited from earlier work
Excerpt: Supplement ijms-22-05630-s001.zip/Hemloytic Peptides(seguence).xlsx, sheet "HD1" | column: Activity || Supplement ijms-22-05630-s001.zip/Hemloytic Peptides(seguence).xlsx, sheet "HD2" | column: Activity || Supplement ijms-22-05630-s001.zip/Hemloytic Peptides(seguence).xlsx, sheet "HD3" | column: Activity

[3] = ACPs dataset D3 (supplement sheet "D3"), 1 = ACP, 0 = non-ACP, ref CancerPPD [45] and SATPdb
[4] = ACPs dataset D4 (sheet "D4"), label 1 = ACP, 0 = non-ACP, ref CancerPPD / SATPdb
[5] = ACPs dataset D5, sheet "D5", label 1 = ACP, 0 = non-ACP, ref CancerPPD [45] and SATPdb
[6] = ACPs dataset D1, label 1 = ACP, 0 = non-ACP (non-anticancer AMPs from SATPdb), ref CancerPPD/SATPdb
[7] = Hemolytic peptides dataset HD2, label 1 = hemolytic, 0 = non-hemolytic, ref Hemolytik/SATPdb
[8] = hemolytic peptides dataset HD3, 1 = hemolytic (positive set), 0 = non-hemolytic (negative set), labels taken from databases, ref Hemolytik/SATPdb
[9] = ACPs dataset D1, 1 = ACP (positive), 0 = non-ACP (negative), label taken from databases, ref CancerPPD [45] and SATPdb
[10] = ACPs dataset D4 (sheet "D4"), label 1 = ACP (CancerPPD ID), 0 = non-ACP (non-anticancer AMP, SATPdb ID), ref CancerPPD [45] and SATPdb
[11] = ACPs dataset D3 (sheet "D3"), label 1 = ACP, 0 = non-ACP, ref CancerPPD/SATPdb
[12] = natural hemolytic peptide dataset HD1, label collected from databases, ref Hemolytik [49], SATPdb [34]

ILAWKWAWWAWRR [satpdb11388]
Activity [1, 3]: 0
Activity [1, 4]: 0
Activity [1, 5]: 0
Activity [2]: 1

GLVTSLIKGAGKLLGGLFGSVTGGQS [satpdb13110]
Activity [1, 6]: 0
Activity [1, 4]: 0
Activity [2]: 1
Activity (dataset HD1, hemolytic 1 / non-hemolytic 0) [2]: 1

KKKLLLLLLLLLKKK [satpdb10761]
Activity [1, 3]: 0
Activity [1, 4]: 0
Activity [1, 5]: 0
Activity [2, 7]: 1
Activity [2, 8]: 1

ALPLIGRVLSGIL [satpdb11361]
Activity [1, 3]: 0
Activity [1, 4]: 0
Activity [1, 5]: 0
Activity [2]: 1

RKLRRLKRKIAHKVKKY [satpdb10022]
Activity [1, 3]: 0
Activity [1, 4]: 0
Activity [1, 5]: 0
Activity [2]: 0

KWKSFLKTFKSAKKKVLHKALKAISS [satpdb10714]
Activity [1, 3]: 0
Activity [1, 4]: 0
Activity [1, 5]: 0
Activity [2, 7]: 1
Activity [2, 8]: 1

KfKLKQ [satpdb10387]
Activity [1, 3]: 0
Activity [1, 4]: 0
Activity [1, 5]: 0
Activity [2, 7]: 0
Activity [2, 8]: 0

RWSVYAYVRVRGVLVRYRRSW [satpdb10414]
Activity [1, 9]: 0
Activity [1, 10]: 0
Activity [2]: 1
Activity (dataset HD1, hemolytic 1 / non-hemolytic 0) [2]: 1

LLIILRRRWRRQARARSR [satpdb11798]
Activity [1, 3]: 0
Activity [1, 4]: 0
Activity [1, 5]: 0
Activity [2]: 1

GFLSSLKKSLPKSXAHSK [satpdb13158]
Activity [1, 11]: 0
Activity [1, 4]: 0
Activity [1, 5]: 0
Activity [2, 7]: 1
Activity [2, 8]: 1

VCGETCFGGTCNTPGCSCTWPICTRDGLP [satpdb10452]
Activity [1, 6]: 0
Activity [1, 10]: 0
Activity [2, 8]: 1
Activity (dataset HD1, hemolytic 1 / non-hemolytic 0) [2, 12]: 1

DYDWSLRGPPKCATYGQKCRTWSPPNCCWNLRCKAFRCRPR [satpdb13169]
Activity [1, 6]: 0
Activity [1, 4]: 0
Activity [2, 8]: 1
Activity (dataset HD1, hemolytic 1 / non-hemolytic 0) [2, 12]: 1

KWFKKIPKFLHLAKKF [compound 1150]
Activity [1, 3]: 1
Activity [1, 10]: 1
Activity ([1]; ACPs dataset D5 (sheet "D5"), label 1 = ACP (positive set), 0 = non-ACP (negative set), ref CancerPPD [45] and SATPdb): 1
Activity [2, 7]: 1
Activity [2, 8]: 1

GIGAvLKvLTTGLPALiSWIkRKRQQ [satpdb13084]
Activity [1, 11]: 0
Activity [1, 4]: 0
Activity [1, 5]: 0
Activity [2, 7]: 0
Activity [2, 8]: 0

LLLFLLKKRKKRKY [satpdb12213]
Activity [1, 6]: 0
Activity [1, 10]: 0
Activity [2]: 1
Activity (dataset HD1, hemolytic 1 / non-hemolytic 0) [2]: 1

GIGAVLK*VLTTGLpALISWIK*RK*RQQ [satpdb13686]
Activity [1, 11]: 0
Activity [1, 4]: 0
Activity [1, 5]: 0
Activity [2, 7]: 1
Activity [2, 8]: 1

DAACAAKCLWR [satpdb10773]
Activity [1, 3]: 0
Activity [1, 4]: 0
Activity [1, 5]: 0
Activity [2, 7]: 0
Activity [2, 8]: 0

CIAKGNGCQPSGVQGNCCSGHCHKEPGWVAGYCK [satpdb13088]
Activity [1, 11]: 0
Activity [1, 4]: 0
Activity [1, 5]: 0
Activity [2, 7]: 0
Activity [2, 8]: 0

TSRCIFYRRKKCS [satpdb13333]
Activity [1, 6]: 0
Activity [1, 4]: 0
Activity [2]: 1
Activity (dataset HD1, hemolytic 1 / non-hemolytic 0) [2]: 1

KLalKLALKALKAALKLA [satpdb12751]
Activity [1, 11]: 0
Activity [1, 4]: 0
Activity [1, 5]: 0
Activity [2]: 1

GLGSLLGKAFKIGLKTVGKMMGGAPREQ [satpdb12448]
Activity [1, 6]: 0
Activity [1, 10]: 0
Activity [2]: 1
Activity (dataset HD1, hemolytic 1 / non-hemolytic 0) [2]: 1

FLPILAGLAAKIVPKLFCLATKKC [satpdb11778]
Activity [1, 6]: 0
Activity [1, 10]: 0
Activity [2]: 1
Activity (dataset HD1, hemolytic 1 / non-hemolytic 0) [2]: 1

FLPLIGRVLSGAL [satpdb13300]
Activity [1, 11]: 0
Activity [1, 4]: 0
Activity [1, 5]: 0
Activity [2]: 1

yPVKLyPVKL [satpdb11316]
Activity [1, 3]: 0
Activity [1, 4]: 0
Activity [1, 5]: 0
Activity [2, 7]: 1
Activity [2, 8]: 1

KKLFKKiLKYL [satpdb14620]
Activity [1, 11]: 0
Activity [1, 4]: 0
Activity [1, 5]: 0
Activity [2]: 0

KWKKLLKKPLKLLKKLLK [satpdb12290]
Activity [1, 11]: 0
Activity [1, 4]: 0
Activity [1, 5]: 0
Activity [2]: 1

VKLKVyPLKVKLyP [satpdb10236]
Activity [1, 3]: 0
Activity [1, 4]: 0
Activity [1, 5]: 0
Activity [2]: 1

FIGAIARLLSKIF [satpdb13222]
Activity [1, 6]: 0
Activity [1, 4]: 0
Activity [2, 8]: 1
Activity (dataset HD1, hemolytic 1 / non-hemolytic 0) [2, 12]: 1

MQFITDLIKKAVDFFKGLFGNK [satpdb11952]
Activity [1, 6]: 0
Activity [1, 10]: 0
Activity [2, 8]: 1
Activity (dataset HD1, hemolytic 1 / non-hemolytic 0) [2, 12]: 1

KEKLKLKCKAPKCYNDKLACT [satpdb13157]
Activity [1, 6]: 0
Activity [1, 4]: 0
Activity [2]: 0
Activity (dataset HD1, hemolytic 1 / non-hemolytic 0) [2]: 0

VKLyPVKLyP [satpdb11941]
Activity [1, 3]: 0
Activity [1, 4]: 0
Activity [1, 5]: 0
Activity [2, 7]: 1
Activity [2, 8]: 1

FSPQMLQDIIEKKTKIL [satpdb13152]
Activity [1, 6]: 0
Activity [1, 4]: 0
Activity [2]: 0
Activity (dataset HD1, hemolytic 1 / non-hemolytic 0) [2]: 0

VKLKVypLKVKLyP [satpdb10873]
Activity [1, 3]: 0
Activity [1, 4]: 0
Activity [1, 5]: 0
Activity [2, 7]: 1
Activity [2, 8]: 1

AKKVFKRLGIGAVLWVLTWG [satpdb10183]
Activity [1, 9]: 0
Activity [1, 10]: 0
Activity [2, 8]: 1
Activity (dataset HD1, hemolytic 1 / non-hemolytic 0) [2, 12]: 1

FRPKVTITIQGSARF [satpdb11995]
Activity [1, 11]: 0
Activity [1, 4]: 0
Activity [1, 5]: 0
Activity [2]: 0

FLPILGKLLSGIL [satpdb10106]
Activity [1, 3]: 0
Activity [1, 4]: 0
Activity [1, 5]: 0
Activity [2, 7]: 1
Activity [2, 8]: 1

VKLGVyPLKVKLyP [satpdb12769]
Activity [1, 11]: 0
Activity [1, 4]: 0
Activity [1, 5]: 0
Activity [2]: 1

FKCKKVVISLRRY [satpdb11913]
Activity [1, 6]: 0
Activity [1, 10]: 0
Activity [2, 8]: 0
Activity (dataset HD1, hemolytic 1 / non-hemolytic 0) [2, 12]: 0

FVPWFSKFLGRIL [satpdb13384]
Activity [1, 11]: 0
Activity [1, 4]: 0
Activity [1, 5]: 0
Activity [2, 7]: 1
Activity [2, 8]: 1

GLGKFLHSAKRFGKAFVGEAMNS [satpdb13009]
Activity [1, 11]: 0
Activity [1, 4]: 0
Activity [1, 5]: 0
Activity [2]: 1

GFLSILKKVLGKVMAHMK [satpdb11125]
Activity [1, 3]: 0
Activity [1, 4]: 0
Activity [1, 5]: 0
Activity [2, 7]: 1
Activity [2, 8]: 1

GKKLLKKLKKLLKKW [satpdb10586]
Activity [1, 3]: 0
Activity [1, 4]: 0
Activity [1, 5]: 0
Activity [2]: 1

GLLSGILGAGKQKVCGLSGLC [satpdb12339]
Activity [1, 6]: 0
Activity [1, 10]: 0
Activity [2]: 1
Activity (dataset HD1, hemolytic 1 / non-hemolytic 0) [2]: 1

LLIILRRRWRKQARARSK [satpdb13104]
Activity [1, 11]: 0
Activity [1, 4]: 0
Activity [1, 5]: 0
Activity [2]: 1
